Experimental data reported in US10112937B2, “P2X7 modulators and methods of use” (Janssen Pharmaceutica NV, priority 2013, dated 2018).

Target: human P2X7 (Homo sapiens (Human), UniProt Q99572)
Test: P2X7 antagonism in human PBMCs (IL-1β release after LPS + Bz-ATP, ELISA)
Assay type: cell-based
Details: human PBMCs, test compound 10 μM
Experimental: P2X7 Antagonism in Human Peripheral Blood Mononuclear Cells (PBMCs) and Human Whole Blood.
Human blood was collected using a blood donor program. PBMCs were isolated from blood using a Ficoll density gradient technique. Briefly, blood was laid on Ficoll solution and centrifuged at RT for 20 minutes at 2000 rpm. The buffy layer (between red blood cells and plasma) was carefully collected by aspiration, washed with PBS and centrifuged again at 1500 rpm for 15 minutes. The resulting cell pellet was washed and plated on 96 well-plates for experiments. For the Human Whole Blood experiments, 150 μl of human blood was platted on 96 well-plates. Lipopolysaccharide (LPS) (30 ng/ml) was added to each well and incubated for 1 hour. Test compounds were then added and incubated for 30 minutes. The P2X7 agonist, 2′(3′)-O-(4-benzoylbenzoyl) adenosine 5′ triphosphate (Bz-ATP) was then added at a final concentration of 0.5 mM (PBMC) or 1 mM (blood). Cells were incubated for an additional 1.5 hours. At that point, supernatant was collected and stored for IL-1β assay using manufacturer's protocol for enzyme-linked immunosorbent assay (ELISA). Data was expressed as percent control, where control is defined as the difference in IL-1β release in LPS+Bz-ATP samples and LPS only samples. Data was plotted as response (% control) versus concentration to generate IC50 values. […] Data are analyzed and graphed on Graphpad Prism 5. For analysis, each concentration point is averaged from triplicate values and the averaged values are plotted on Graphpad Prism.

human P2X7, sequence (Q99572 whole entry): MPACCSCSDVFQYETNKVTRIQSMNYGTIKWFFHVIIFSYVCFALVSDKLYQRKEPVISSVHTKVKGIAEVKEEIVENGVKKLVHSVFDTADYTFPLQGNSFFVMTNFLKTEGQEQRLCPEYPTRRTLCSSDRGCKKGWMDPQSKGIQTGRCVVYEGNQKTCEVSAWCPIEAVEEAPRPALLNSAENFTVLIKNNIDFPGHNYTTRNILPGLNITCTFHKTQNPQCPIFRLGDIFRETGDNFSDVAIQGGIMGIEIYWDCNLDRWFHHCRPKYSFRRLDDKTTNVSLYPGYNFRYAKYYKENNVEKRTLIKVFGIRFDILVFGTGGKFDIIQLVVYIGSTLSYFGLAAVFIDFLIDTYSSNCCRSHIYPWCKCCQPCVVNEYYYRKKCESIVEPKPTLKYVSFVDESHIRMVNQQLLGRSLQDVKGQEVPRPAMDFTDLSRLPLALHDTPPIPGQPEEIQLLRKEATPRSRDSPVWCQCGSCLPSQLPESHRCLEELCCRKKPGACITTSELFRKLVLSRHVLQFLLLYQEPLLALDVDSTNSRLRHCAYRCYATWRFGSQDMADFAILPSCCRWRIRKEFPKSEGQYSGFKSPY

Row | SMILES | PBMC 10 μM (% control)
1 | CC1Cc2c(nnn2-c2ncc(F)cn2)CN1C(=O)c1cccc(Cl)c1Cl (stereo not shown) [Example 203, 5-[(2,3-Dichlorophenyl)carbonyl]-1-(5-fluoropyrimidin-2-yl)-6-methyl-4,5,6,7-tetrahydro-1H-[1,2,3]triazolo[4,5-c]pyridine] | 0.6
2 | CC1Cc2c(nnn2-c2ncc(F)cn2)CN1C(=O)c1ccc(F)c(Cl)c1Cl (stereo not shown) [Example 213, 5-[(2,3-Dichloro-4-fluorophenyl)carbonyl]-1-(5-fluoropyrimidin-2-yl)-6-methyl-4,5,6,7-tetrahydro-1H-[1,2,3]triazolo[4,5-c]pyridine] | 0.3
3 | CC1Cc2c(nnn2-c2ncc(F)cn2)CN1C(=O)c1ccc(Cl)c(F)c1Cl (stereo not shown) [Example 216, 5-[(2,4-Dichloro-3-fluorophenyl)carbonyl]-1-(5-fluoropyrimidin-2-yl)-6-methyl-4,5,6,7-tetrahydro-1H-[1,2,3]triazolo[4,5-c]pyridine] | 0.6
4 | Cc1ccnc(-n2nnc3c2CCN(C(=O)c2cccc(Cl)c2Cl)C3C)n1 (stereo not shown) [Example 225, (2,3-dichlorophenyl)(4-methyl-1-(4-methylpyrimidin-2-yl)-6,7-dihydro-1H-[1,2,3]triazolo[4,5-c]pyridin-5(4H)-yl)methanone] | −1.0
5 | Cc1nc(-n2nnc3c2CCN(C(=O)c2cccc(C(F)(F)F)c2Cl)C3C)ncc1F (stereo not shown) [Example 230, (2-chloro-3-(trifluoromethyl)phenyl)(1-(5-fluoro-4-methylpyrimidin-2-yl)-4-methyl-6,7-dihydro-1H-[1,2,3]triazolo[4,5-c]pyridin-5(4H)-yl)methanone] | 2.9
6 | Cc1cccc(-n2nnc3c2CCN(C(=O)c2cccc(Cl)c2Cl)C3C)n1 (stereo not shown) [Example 233, (2,3-dichlorophenyl)(4-methyl-1-(6-methylpyridin-2-yl)-6,7-dihydro-1H-[1,2,3]triazolo[4,5-c]pyridin-5(4H)-yl)methanone] | −0.1
7 | CC1c2nnn(-c3cncnc3)c2C=CN1C(=O)c1cccc(C(F)(F)F)c1Cl (stereo not shown) [Example 236, (2-Chloro-3-(trifluoromethyl)phenyl)(4-methyl-1-(pyrimidin-5-yl)-1H-[1,2,3]triazolo[4,5-c]pyridin-5(4H)-yl)methanone] | 9.3
8 | Cc1ccnc(-n2nnc3c2CCN(C(=O)c2cccc(Cl)c2Cl)C3C)c1 (stereo not shown) [Example 237, (2,3-dichlorophenyl)(4-methyl-1-(4-methylpyridin-2-yl)-6,7-dihydro-1H-[1,2,3]triazolo[4,5-c]pyridin-5(4H)-yl)methanone] | −5.1
9 | CC1CN(C(=O)c2cccc(C(F)(F)F)c2Cl)C(C)c2nnn(-c3ccc(F)cc3)c21 (stereo not shown) [Example 238, (2-Chloro-3-(trifluoromethyl)phenyl)(1-(4-fluorophenyl)-4,7-dimethyl-6,7-dihydro-1H-[1,2,3]triazolo[4,5-c]pyridin-5(4H)-yl)methanone] | −4.1
10 | CC1Cc2c(nnn2-c2ccccc2)C(C)N1C(=O)c1cccc(C(F)(F)F)c1Cl (stereo not shown) [Example 240, (2-Chloro-3-(trifluoromethyl)phenyl)(4,6-dimethyl-1-phenyl-6,7-dihydro-1H-[1,2,3]triazolo[4,5-c]pyridin-5(4H)-yl)methanone] | −8.9
11 | CC1Cc2c(nnn2-c2ccc(F)cc2)C(C)N1C(=O)c1cccc(Cl)c1Cl (stereo not shown) [Example 242, (2,3-Dichlorophenyl)(1-(4-fluorophenyl)-4,6-dimethyl-6,7-dihydro-1H-[1,2,3]triazolo[4,5-c]pyridin-5(4H)-yl)methanone] | −3.4
12 | CC1CN(C(=O)c2cccc(C(F)(F)F)c2Cl)Cc2nnn(-c3ccc(F)cc3)c21 (stereo not shown) [Example 246, (2-Chloro-3-(trifluoromethyl)phenyl)(1-(4-fluorophenyl)-7-methyl-6,7-dihydro-1H-[1,2,3]triazolo[4,5-c]pyridin-5(4H)-yl)methanone] | −3.1
13 | CC1CN(C(=O)c2cccc(Cl)c2Cl)Cc2nnn(-c3ccc(F)cc3)c21 (stereo not shown) [Example 247, (2,3-Dichlorophenyl)(1-(4-fluorophenyl)-7-methyl-6,7-dihydro-1H-[1,2,3]triazolo[4,5-c]pyridin-5(4H)-yl)methanone] | −0.8
14 | Cc1ccnc(-n2nnc3c2CCN(C(=O)c2cccc(C(F)(F)F)c2Cl)C3C)n1 (stereo not shown) [Example 252, (2-Chloro-3-(trifluoromethyl)phenyl)(4-methyl-1-(4-methylpyrimidin-2-yl)-6,7-dihydro-1H-[1,2,3]triazolo[4,5-c]pyridin-5(4H)-yl)methanone] | −0.8
15 | Cc1cc(C)nc(-n2nnc3c2CCN(C(=O)c2cccc(C(F)(F)F)c2Cl)C3C)n1 (stereo not shown) [Example 253, (2-Chloro-3-(trifluoromethyl)phenyl)(1-(4,6-dimethylpyrimidin-2-yl)-4-methyl-6,7-dihydro-1H-[1,2,3]triazolo[4,5-c]pyridin-5(4H)-yl)methanone] | −2.6
16 | O=C(c1ccc(Cl)cc1Cl)N1CCc2c(nnn2-c2ncccn2)C1 [Example 257, (2,4-dichlorophenyl)(1-(pyrimidin-2-yl)-6,7-dihydro-1H-[1,2,3]triazolo[4,5-c]pyridin-5(4H)-yl)methanone] | 7.1
17 | Cc1cccnc1-n1nnc2c1CCN(C(=O)c1cccc(C(F)(F)F)c1Cl)C2C (stereo not shown) [Example 259, (2-Chloro-3-(trifluoromethyl)phenyl)(4-methyl-1-(3-methylpyridin-2-yl)-6,7-dihydro-1H-[1,2,3]triazolo[4,5-c]pyridin-5(4H)-yl)methanone] | −3.5

Continued, values first:

Row | PBMC 10 μM (% control) | SMILES
18 | −1.0 | Cc1c(C(=O)N2Cc3nnn(-c4ncc(F)cn4)c3CC2C)cccc1C(F)(F)F (stereo not shown) [Example 206, 1-(5-Fluoropyrimidin-2-yl)-6-methyl-5-{[2-methyl-3-(trifluoromethyl)phenyl]carbonyl}-4,5,6,7-tetrahydro-1H-[1,2,3]triazolo[4,5-c]pyridine]
19 | −1.0 | CC1Cc2c(nnn2-c2cnccn2)CN1C(=O)c1cccc(C(F)(F)F)c1Cl (stereo not shown) [Example 209, 5-{[2-Chloro-3-(trifluoromethyl)phenyl]carbonyl}-6-methyl-1-pyrazin-2-yl-4,5,6,7-tetrahydro-1H-[1,2,3]triazolo[4,5-c]pyridine]
20 | 0.8 | CC1Cc2c(nnn2-c2cc[nH]n2)CN1C(=O)c1cccc(C(F)(F)F)c1Cl (stereo not shown) [Example 210, (2-chloro-3-(trifluoromethyl)phenyl)(6-methyl-1-(1H-pyrazol-3-yl)-6,7-dihydro-1H-[1,2,3]triazolo[4,5-c]pyridin-5(4H)-yl)methanone]
21 | −1.1 | C[C@H]1Cc2c(nnn2-c2ncc(F)cn2)CN1C(=O)c1ccnc(C(F)(F)F)c1F [Example 228, (S)-(3-fluoro-2-(trifluoromethyl)pyridin-4-yl)(1-(5-fluoropyrimidin-2-yl)-6-methyl-6,7-dihydro-1H-[1,2,3]triazolo[4,5-c]pyridin-5(4H)-yl)methanone]
22 | −4.8 | Cc1cc(C)nc(-n2nnc3c2CCN(C(=O)c2cccc(Cl)c2Cl)C3C)c1 (stereo not shown) [Example 231, (2,3-dichlorophenyl)(1-(4,6-dimethylpyridin-2-yl)-4-methyl-6,7-dihydro-1H-[1,2,3]triazolo[4,5-c]pyridin-5(4H)-yl)methanone]
23 | 6.5 | CC1CN(C(=O)c2cccc(C(F)(F)F)c2Cl)C(C)c2nnn(-c3ccccc3)c21 (stereo not shown) [Example 241, (2-Chloro-3-(trifluoromethyl)phenyl)(4,7-dimethyl-1-phenyl-6,7-dihydro-1H-[1,2,3]triazolo[4,5-c]pyridin-5(4H)-yl)methanone]
24 | 1.0 | CC1Cc2c(nnn2-c2ccc(F)cc2)C(C)N1C(=O)c1cccc(C(F)(F)F)c1Cl (stereo not shown) [Example 243, (2-Chloro-3-(trifluoromethyl)phenyl)(1-(4-fluorophenyl)-4,6-dimethyl-6,7-dihydro-1H-[1,2,3]triazolo[4,5-c]pyridin-5(4H)-yl)methanone]
25 | −2.3 | CC1CN(C(=O)c2cccc(Cl)c2Cl)Cc2nnn(-c3ccccc3)c21 (stereo not shown) [Example 244, (2,3-Dichlorophenyl)(7-methyl-1-phenyl-6,7-dihydro-1H-[1,2,3]triazolo[4,5-c]pyridin-5(4H)-yl)methanone]
26 | −7.3 | CC1CN(C(=O)c2cccc(C(F)(F)F)c2Cl)Cc2nnn(-c3ccccc3)c21 (stereo not shown) [Example 245, (2-Chloro-3-(trifluoromethyl)phenyl)(7-methyl-1-phenyl-6,7-dihydro-1H-[1,2,3]triazolo[4,5-c]pyridin-5(4H)-yl)methanone]
27 | −1.3 | CC1c2nnn(-c3ncco3)c2CCN1C(=O)c1cccc(C(F)(F)F)c1Cl (stereo not shown) [Example 250, (2-Chloro-3-(trifluoromethyl)phenyl)(4-methyl-1-(oxazol-2-yl)-6,7-dihydro-1H-[1,2,3]triazolo[4,5-c]pyridin-5(4H)-yl)methanone]
28 | 0.9 | CCc1cccnc1-n1nnc2c1CCN(C(=O)c1cccc(C(F)(F)F)c1Cl)C2C (stereo not shown) [Example 254, (2-Chloro-3-(trifluoromethyl)phenyl)(1-(3-ethylpyridin-2-yl)-4-methyl-6,7-dihydro-1H-[1,2,3]triazolo[4,5-c]pyridin-5(4H)-yl)methanone]
29 | −3.2 | CCOc1cccnc1-n1nnc2c1CCN(C(=O)c1cccc(C(F)(F)F)c1Cl)C2C (stereo not shown) [Example 258, (2-Chloro-3-(trifluoromethyl)phenyl)(1-(3-ethoxypyridin-2-yl)-4-methyl-6,7-dihydro-1H-[1,2,3]triazolo[4,5-c]pyridin-5(4H)-yl)methanone]
30 | 1.4 | COc1cccnc1-n1nnc2c1CCN(C(=O)c1cccc(C(F)(F)F)c1Cl)C2C (stereo not shown) [Example 260, (2-Chloro-3-(trifluoromethyl)phenyl)(1-(3-methoxypyridin-2-yl)-4-methyl-6,7-dihydro-1H-[1,2,3]triazolo[4,5-c]pyridin-5(4H)-yl)methanone]

Same assay, conditions: test compound 10 μM, LPS 30 ng/ml + 0.5 mM Bz-ATP

Row | SMILES | PBMC 10 μM (% control)
31 | Cc1cc(C)nc(-n2nnc3c2CCN(C(=O)c2cccc(C(F)(F)F)c2Cl)C3C)n1 (stereo not shown) [Example 253, (2-Chloro-3-(trifluoromethyl)phenyl)(1-(4,6-dimethylpyrimidin-2-yl)-4-methyl-6,7-dihydro-1H-[1,2,3]triazolo[4,5-c]pyridin-5(4H)-yl)methanone] | −2.6
